Reference: patent publication US11213590B2, “SSTR-targeted conjugates and particles and formulations thereof” (priority 2016, dated 2022)
pIC50: −log10 of the molar value.

Columns and labels:
[1] = test system: HCC-33 (small cell lung cancer) xenograft; assay: HCC-33 xenograft efficacy; format: in vivo
Procedure: HCC-33 (small cell lung cancer) xenograft was chosen to study efficacy of Conjugate 57. In some groups, Conjugate 57 was given at 1.0 mg/kg, 0.5 mg/kg or 0.33 mg/kg every week for 30 days, a total of four doses for each animal. In some other groups, Conjugate 57 was also given at 0.5 mg/kg or 0.25 mg/kg twice a week for 30 days, a total of 8 total doses for each animal.

[2] = In vivo cardiovascular and respiratory evaluation; parameters: species or system beagle dog
Procedure: This study was conducted to evaluate the potential cardiovascular and respiratory effects of Conjugate 57 in conscious freely moving naïve male beagle dogs.
Assessments of cardiovascular and respiratory effects and general toxicity were based on mortality, clinical observations, body weight, body temperature, cardiovascular evaluations, i.e., blood pressure (systolic, diastolic, and mean arterial pressures), heart rate, the ECG (QRS duration and the RR, PR, QT, and Corrected QT [QTc] intervals), and respiratory evaluations (respiratory rate, tidal volume, and minute volume). The animals were monitored continuously for at least 2 hours prior to dosing and for 24 hours post dose.

[3] = target: T1, SSTR2 (Homo sapiens, UniProt P30874); assay: Affinity profile (half-maximal inhibitory concentration), SSTR2; format: binding
T1 sequence (P30874 whole entry): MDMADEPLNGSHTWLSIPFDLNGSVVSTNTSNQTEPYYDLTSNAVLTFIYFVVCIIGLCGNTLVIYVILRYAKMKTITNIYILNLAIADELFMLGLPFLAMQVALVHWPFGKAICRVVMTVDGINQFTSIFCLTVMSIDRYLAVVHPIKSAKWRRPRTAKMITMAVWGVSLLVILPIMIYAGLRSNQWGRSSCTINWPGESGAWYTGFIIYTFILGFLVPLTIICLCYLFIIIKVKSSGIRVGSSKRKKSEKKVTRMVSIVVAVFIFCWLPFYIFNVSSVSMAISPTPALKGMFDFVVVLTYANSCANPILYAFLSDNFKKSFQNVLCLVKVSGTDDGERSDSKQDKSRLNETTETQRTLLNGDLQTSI
Source text: (§1) DOTATE, also known as DOTA-TATE or DOTA-octreotate, comprises an amide of the acid DOTA, which connects a radionuclide and (Tyr3)-octreotate, a derivative of octreotide. DOTATOC, also known as edotreotide, SMT487, or (DOTA^0-Phe^1-Tyr^3)octreotide, is also an octreotide derivative which can be bound to radionuclides for diagnosis and treatment.

[4] = target: SSTR5 (Homo sapiens, UniProt P35346); assay: Affinity profile (half-maximal inhibitory concentration), SSTR5; format: binding
SSTR5, sequence (P35346 whole entry): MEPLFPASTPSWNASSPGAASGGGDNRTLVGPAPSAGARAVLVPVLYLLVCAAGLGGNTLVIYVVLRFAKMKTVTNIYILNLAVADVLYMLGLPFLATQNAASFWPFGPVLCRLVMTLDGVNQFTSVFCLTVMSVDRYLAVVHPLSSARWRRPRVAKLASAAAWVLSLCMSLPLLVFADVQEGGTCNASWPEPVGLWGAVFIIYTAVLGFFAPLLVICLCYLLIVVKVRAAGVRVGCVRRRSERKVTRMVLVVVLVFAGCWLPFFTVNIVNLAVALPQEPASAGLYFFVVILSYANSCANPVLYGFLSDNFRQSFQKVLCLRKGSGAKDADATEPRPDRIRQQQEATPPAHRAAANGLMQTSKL
Source text: as §1

[5] = target: T1, SSTR2; assay: SSTR2 receptor internalization in H524-MD tumor xenograft (IHC staining); format: in vivo; parameters: highly expressing SSTR2 positive (SSTR2+) tumor xenograft; endogenous in cells
Procedure: SSTR2 receptor internalization was studied using Conjugate 57 in a highly expressing SSTR2 positive (SSTR2+) tumor xenograft: H524_MD tumor xenograft. Vehicle (0.1% Solutol/5% Mannitol), Conjugate 57 at 2 mg/kg, scrambled control (BT-984) at 2 mg/kg, and Octreotide at 1.4 mg/kg (ligand alone) were given to SSTR2+ H524-MD tumor xenografts (n=3/group). Timepoints—0 hr (Vehicle), 15 mins, 1 hr, 4 hr, 24 hr and 72 hrs. SSTR2 scoring was done by immunohistochemistry (IHC) staining.

[6] = 0.16 mg/kg iv, segment 1 (>0 to 0.25 hours post dose)
[7] = 0.16 mg/kg iv, segment 2 (>0.25 to 6 hours post dose)
[8] = 0.16 mg/kg iv, segment 3 (>6 to 24 hours post dose)
[9] = 0.20 mg/kg iv, segment 1 (>0 to 0.25 hours post dose)
[10] = 0.20 mg/kg iv, segment 2 (>0.25 to 6 hours post dose)
[11] = 0.20 mg/kg iv, segment 3 (>6 to 24 hours post dose)
[12] = 0.24 mg/kg iv, segment 1 (>0 to 0.25 hours post dose)
[13] = 0.24 mg/kg iv, segment 2 (>0.25 to 6 hours post dose)
[14] = 0.24 mg/kg iv, segment 3 (>6 to 24 hours post dose)

With `COc1cc2cc(c1Cl)N(C)C(=O)C[C@H](OC(=O)[C@H](C)N(C)C(=O)CCSSC[C@H](NC(=O)[C@@H]1CSSC[C@H](NC(=O)[C@H](N)Cc3ccccc3)C(=O)N[C@@H](Cc3ccc(O)cc3)C(=O)N[C@H](Cc3c[nH]c4ccccc34)C(=O)N[C@@H](CCCCN)C(=O)N[C@@H]([C@@H](C)O)C(=O)N1)C(N)=O)[C@]1(C)O[C@H]1[C@H](C)[C@@H]1C[C@@](O)(NC(=O)O1)[C@H](OC)/C=C/C=C(\C)C2` [Conjugate 57] the TGI % ([1]; 0.25 mg/kg 2x/wk (8 doses), Day 4) was −12.5%, the TGI % ([1]; 0.25 mg/kg 2x/wk (8 doses), Day 8) was 50.4% and the TGI % ([1]; 0.25 mg/kg 2x/wk (8 doses), Day 11) was 67.3%. For the same compound, the TGI % ([1]; 0.25 mg/kg 2x/wk (8 doses), Day 15) was 85.8%, the TGI % ([1]; 0.25 mg/kg 2x/wk (8 doses), Day 18) was 92.3% and the TGI % ([1]; 0.25 mg/kg 2x/wk (8 doses), Day 22) was 95.8%. For the same compound, the TGI % ([1]; 0.25 mg/kg 2x/wk (8 doses), Day 25) was 97.2%, the TGI % ([1]; 0.25 mg/kg 2x/wk (8 doses), Day 29) was 97.8% and the TGI % ([1]; 0.33 mg/kg every week (4 doses), Day 4) was 2.1%. It also gave a TGI % ([1]; 0.33 mg/kg every week (4 doses), Day 8) of 34.2%, a TGI % ([1]; 0.33 mg/kg every week (4 doses), Day 11) of 48% and a TGI % ([1]; 0.33 mg/kg every week (4 doses), Day 15) of 62.4%. It also gave a TGI % ([1]; 0.33 mg/kg every week (4 doses), Day 18) of 73.8%, a TGI % ([1]; 0.33 mg/kg every week (4 doses), Day 22) of 79% and a TGI % ([1]; 0.33 mg/kg every week (4 doses), Day 25) of 83.4%. The TGI % ([1]; 0.33 mg/kg every week (4 doses), Day 29) was 78.5%, the TGI % ([1]; 0.5 mg/kg 2x/wk (8 doses), Day 4) was 0.5% and the TGI % ([1]; 0.5 mg/kg 2x/wk (8 doses), Day 8) was 61.6%. For the same compound, the TGI % ([1]; 0.5 mg/kg 2x/wk (8 doses), Day 11) was 78.3%, the TGI % ([1]; 0.5 mg/kg 2x/wk (8 doses), Day 15) was 91.8% and the TGI % ([1]; 0.5 mg/kg 2x/wk (8 doses), Day 18) was 96.2%. The TGI % ([1]; 0.5 mg/kg 2x/wk (8 doses), Day 22) was 97.6%, the TGI % ([1]; 0.5 mg/kg 2x/wk (8 doses), Day 25) was 99.1% and the TGI % ([1]; 0.5 mg/kg 2x/wk (8 doses), Day 29) was 99.2%. For the same compound, the TGI % ([1]; 0.5 mg/kg every week (4 doses), Day 4) was 1.6%, the TGI % ([1]; 0.5 mg/kg every week (4 doses), Day 8) was 60.3% and the TGI % ([1]; 0.5 mg/kg every week (4 doses), Day 11) was 68.8%. For the same compound, the TGI % ([1]; 0.5 mg/kg every week (4 doses), Day 15) was 82.7%, the TGI % ([1]; 0.5 mg/kg every week (4 doses), Day 18) was 87.1% and the TGI % ([1]; 0.5 mg/kg every week (4 doses), Day 22) was 91.1%. For the same compound, the TGI % ([1]; 0.5 mg/kg every week (4 doses), Day 25) was 93.6%, the TGI % ([1]; 0.5 mg/kg every week (4 doses), Day 29) was 89.5% and the TGI % ([1]; 1.0 mg/kg every week (4 doses), Day 4) was 25.8%. For the same compound, the TGI % ([1]; 1.0 mg/kg every week (4 doses), Day 8) was 69.9%, the TGI % ([1]; 1.0 mg/kg every week (4 doses), Day 11) was 84.4% and the TGI % ([1]; 1.0 mg/kg every week (4 doses), Day 15) was 93.6%. The TGI % ([1]; 1.0 mg/kg every week (4 doses), Day 18) was 97.4%, the TGI % ([1]; 1.0 mg/kg every week (4 doses), Day 22) was 99.2% and the TGI % ([1]; 1.0 mg/kg every week (4 doses), Day 25) was 99.8%. For the same compound, the TGI % ([1]; 1.0 mg/kg every week (4 doses), Day 29) was 99.7%, the Body weights ([1]; HCC-33 xenograft, all groups) was “good” and the “tolerability of multiple doses” value ([1]; HCC-33 xenograft, weekly or twice weekly dosing for 30 days) was “well tolerated”. For the same compound, the “Diastolic Blood Pressure, overall segment mean” value (“Diastolic Blood Pressure” for short) [2, 6] was 100.8 ± 4.1, the “Mean Arterial Blood Pressure, overall segment mean” value (shortened to “Mean Arterial Blood Pressure”) [2, 6] was 124.0 ± 4.8 and the “Systolic Blood Pressure, overall segment mean” value (“Systolic Blood Pressure” below) [2, 6] was 162.8 ± 5.7. The “Diastolic Blood Pressure” value [2, 7] was 102.7 ± 1.5, the “Mean Arterial Blood Pressure” value [2, 7] was 128.6 ± 2.0 and the “Systolic Blood Pressure” value [2, 7] was 172.2 ± 2.9. For the same compound, the “Diastolic Blood Pressure” value [2, 8] was 99.6 ± 1.9, the “Mean Arterial Blood Pressure” value [2, 8] was 125.7 ± 2.2 and the “Systolic Blood Pressure” value [2, 8] was 169.2 ± 3.1. For the same compound, the “Diastolic Blood Pressure” value [2, 9] was 99.8 ± 4.2, the “Mean Arterial Blood Pressure” value [2, 9] was 122.7 ± 4.9 and the “Systolic Blood Pressure” value [2, 9] was 161.1 ± 5.9. For the same compound, the “Diastolic Blood Pressure” value [2, 10] was 97.7 ± 1.5, the “Mean Arterial Blood Pressure” value [2, 10] was 122.6 ± 2.1 and the “Systolic Blood Pressure” value [2, 10] was 165.7 ± 3.0. The “Diastolic Blood Pressure” value [2, 11] was 93.8 ± 1.9, the “Mean Arterial Blood Pressure” value [2, 11] was 119.4 ± 2.2 and the “Systolic Blood Pressure” value [2, 11] was 163.4 ± 3.2. For the same compound, the “Diastolic Blood Pressure” value [2, 12] was 112.0 ± 4.1, the “Mean Arterial Blood Pressure” value [2, 12] was 138.7 ± 4.8 and the “Systolic Blood Pressure” value [2, 12] was 182.0 ± 5.7. For the same compound, the “Diastolic Blood Pressure” value [2, 13] was 104.1 ± 1.5, the “Mean Arterial Blood Pressure” value [2, 13] was 129.8 ± 2.0 and the “Systolic Blood Pressure” value [2, 13] was 176.3 ± 2.9. For the same compound, the “Diastolic Blood Pressure” value [2, 14] was 97.1 ± 1.9, the “Mean Arterial Blood Pressure” value [2, 14] was 123.5 ± 2.2 and the “Systolic Blood Pressure” value [2, 14] was 171.1 ± 3.1. For the same compound, the “blood pressure, heart rate and respiratory rate” value ([2]; 0.24 mg/kg, from dosing through 1.5 to 2 hours following dosing) was “statistically significant increases”, the “effects on QRS duration, ECG morphology, or tidal volume” value ([2]; any dose level tested) was “no test article-related effects” and the “adverse effects on cardiovascular or respiratory function” value ([2]; iv, male beagle dogs, doses up to and including 0.24 mg/kg) was “no adverse effects”. The “tolerability, clinical observations, mortality” value ([2]; single iv infusion over 6 minutes, 0.16, 0.20 and 0.24 mg/kg, male beagle dogs) was “generally well tolerated”, the pIC50 [3] was 10.38 and the pIC50 [4] was 7.62. The “SSTR2 receptor internalization/distribution in vivo” value ([5]; 2 mg/kg, H524-MD tumor xenograft) was “significant receptor internalization/distribution”, the “SSTR2 receptor internalization, intensity of staining analysis” value ([5]; 2 mg/kg, versus BT-984 and naïve at 1 hr, 4 hr and 72 hours) was “significantly different results” and the “SSTR2 internalization, distribution of staining analysis” value ([5]; 2 mg/kg, versus BT-984 and naïve at 4 hr, 24 hr and 72 hours) was “significantly different results”. The “SSTR2 internalization compared with octreotide alone” value ([5]; Conjugate 57 2 mg/kg, octreotide 1.4 mg/kg) was “more SSTR2 internalization than octreotide alone”.
